In paper PMC7617869, “Molecular glues that inhibit deubiquitylase activity and inflammatory signaling” (Nature Structural & Molecular Biology, 2025):
“And” between values parts separate entries of the source, which are not always exact repeats. Equal values may be shown once.

Tests used:
USP2 = molecular target: T1, USP2 (Homo sapiens, UniProt O75604); experiment: USP2 IQF diubiquitin selectivity assay; type: biochemical; conditions: Fig. 1g, USP2
T1 construct: His (N, cleaved yes); host or cells: Escherichia coli BL21(DE3)
T1 sequence (O75604 258-605 limits assumed): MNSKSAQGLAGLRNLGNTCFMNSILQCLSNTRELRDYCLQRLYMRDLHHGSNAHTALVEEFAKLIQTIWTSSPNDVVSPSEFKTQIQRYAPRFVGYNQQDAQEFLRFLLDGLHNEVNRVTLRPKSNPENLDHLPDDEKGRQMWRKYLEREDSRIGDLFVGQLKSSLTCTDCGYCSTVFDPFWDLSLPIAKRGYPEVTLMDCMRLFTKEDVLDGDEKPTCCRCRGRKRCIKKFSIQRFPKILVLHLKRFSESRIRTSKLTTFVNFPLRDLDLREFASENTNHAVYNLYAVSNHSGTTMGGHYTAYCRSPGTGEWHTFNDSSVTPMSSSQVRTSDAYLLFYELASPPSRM
Protocol: BRISC DUB activity was measured at room temperature using 1 nM BRISC and 500 nM IQF diubiquitin K63 substrate (LifeSensors, DU6303) in the presence of DMSO and compounds at 10 μM (final concentrations). Assays were performed in 384-well black flat-bottom low-flange plates (Corning, 35373) in buffer containing 50 mM HEPES–NaOH pH 7.0, 100 mM NaCl, 1 mg ml^−1 BSA, 1 mM DTT and 0.03% v/v Brij-35. Then, 10 μl of twofold concentrated enzyme stock was dispensed, followed by transfer of 200 nl of compounds (1 mM stock) using a 384-pin tool and a 15-min incubation at room temperature. Then, 10 μl of twofold concentrated substrate stock was added and the reaction was monitored by measuring fluorescence intensity (excitation, 540 nm; emission, 580 nm) after 20-min incubation at room temperature and ~50% of substrate was consumed. Orthogonal assays for verification of H20 and P12 hit compounds using USP2 (100 nM) and trypsin (125 nM) were performed in identical conditions.
(§1) IQF assays were performed in DUB reaction buffer containing 50 mM HEPES–NaOH pH 7.0, 100 mM NaCl, 0.1 mg ml^−1 BSA, 1 mM DTT and 0.03% v/v Brij-35. […] The final concentration of BRISC WT, all BRISC mutants, HsBRISCΔLoop, MmBRISC and DrBRISCΔNΔC was 1 nM. Other enzymes were tested at the following concentrations: 5 nM ARISC (FL), 10 nM CfBRISCΔNΔC, 250 nM AMSH* (ref. [43]), 500 nM USP2 and 1 μM trypsin (Sigma, 9002-07-7). For Michaelis–Menten experiments, 1 nM BRISC with 0–1 μM IQF K63-linked diubiquitin substrate was used. Michaelis–Menten analyses and Lineweaver–Burk plots were calculated using GraphPad Prism (version 9.0).
(§2) To assess enzymatic activity, BRISC complexes were diluted to concentrations between 1 nM and 50 nM. […] Then, 20-μl enzyme reactions were carried out in 384-well black flat-bottom low-flange plates (Corning, 35373). DUB activity was measured using IQF K63-linked diubiquitin (LifeSensors, DU6303) at 50 nM. Cleaved diubiquitin was monitored by measuring fluorescence intensity (excitation, 544 nm; emission, 575 nm; dichroic mirror, 560 nm). Fluorescence intensity was measured every minute for 30 min at 30 °C. Fluorescence intensity units were plotted against time to generate a linear reaction progress curve, where the initial velocity (V0) corresponds to the gradient of the curve (typically achieved within 15 min). IC50 values were calculated using the GraphPad Prism (version 9.0) built-in dose–response equation for inhibitor concentration versus response (variable slope).

BRCC36–Abraxas 2 complex = molecular target: T2, BRCC36–Abraxas 2 complex (Homo sapiens, UniProt P46736+Q15018); experiment: BRCC36–Abraxas 2 IQF DUB activity assay; type: biochemical; conditions: for Normalised V0: Fig. 1g, HsBRCC36-Abraxas2
T2 construct: made in house; host or cells: Spodoptera frugiperda (Sf9) insect cells, MultiBac
Protocol: as §1, §2

In the case of O=C(NC1C2CNCC21)c1nn(C(=O)c2c(Cl)cccc2Cl)cc1NC(=O)c1c(Cl)cccc1Cl (centres unmarked) [FX-171-C], the “Normalised V0” value (USP2; FX-171-C 0.02 μM) is reported as 1.153 and 1.005 and 0.8911, the “Normalised V0” value (USP2; FX-171-C 0.0399999 μM) is reported as 1.181 and 1.054 and 0.8345 and the “Normalised V0” value (USP2; FX-171-C 0.0599997 μM) is reported as 1.101 and 1.035 and 0.8564. For the same compound, the “Normalised V0” value (USP2; FX-171-C 0.0799994 μM) was 1.262 and 0.9465 and 0.964, the “Normalised V0” value (USP2; FX-171-C 0.119998 μM) was 1.156 and 1.12 and 1.0155 and the “Normalised V0” value (USP2; FX-171-C 0.199996 μM) was 1.162 and 0.9867 and 0.9385. For the same compound, the “Normalised V0” value (USP2; FX-171-C 0.499975 μM) was 1.323 and 0.7865 and 0.9403, the “Normalised V0” value (USP2; FX-171-C 0.799936 μM) was 1.167 and 0.9524 and 0.9376 and the “Normalised V0” value (USP2; FX-171-C 1.25984 μM) was 1.254 and 0.9797 and 0.8377. For the same compound, the “Normalised V0” value (USP2; FX-171-C 1.9996 μM) was 1.211 and 0.9571 and 0.9503, the “Normalised V0” value (USP2; FX-171-C 3.159 μM) was 1.329 and 0.7564 and 0.948 and the “Normalised V0” value (USP2; FX-171-C 5.19739 μM) was 1.206 and 0.9941 and 0.9284. The “Normalised V0” value (USP2; FX-171-C 7.99364 μM) was 1.269 and 0.9668 and 0.7862, the “Normalised V0” value (USP2; FX-171-C 12.7839 μM) was 1.167 and 1.027 and 0.9175 and the “Normalised V0” value (USP2; FX-171-C 19.96 μM) was 1.282 and 0.8934 and 0.9216. For the same compound, the “Normalised V0” value (USP2; FX-171-C 31.4999 μM) was 1.071 and 0.9617 and 0.949, the “Normalised V0” value (USP2; FX-171-C 50.147 μM) was 1.087 and 1.072 and 0.8163 and the “Normalised V0” value (USP2; FX-171-C 79.7601 μM) was 1.1 and 0.8638 and 0.912. For the same compound, the “Normalised V0” value (USP2; FX-171-C 125.99 μM) was 1.048 and 0.9793 and 0.8997, the “Normalised V0” value (USP2; FX-171-C 199.922 μM) was 1.047 and 0.829 and 0.8108 and the “Normalised V0” value (BRCC36–Abraxas 2 complex; FX-171-C 0.02 μM) was 1.3 and 1.008 and 1.02. The “Normalised V0” value (BRCC36–Abraxas 2 complex; FX-171-C 0.0399999 μM) was 1.022 and 1.101 and 0.829, the “Normalised V0” value (BRCC36–Abraxas 2 complex; FX-171-C 0.0599997 μM) was 1.02 and 1.119 and 0.8587 and the “Normalised V0” value (BRCC36–Abraxas 2 complex; FX-171-C 0.0799994 μM) was 1.3 and 1.0735 and 0.9036. The “Normalised V0” value (BRCC36–Abraxas 2 complex; FX-171-C 0.119998 μM) was 1.089 and 1.054 and 0.9805, the “Normalised V0” value (BRCC36–Abraxas 2 complex; FX-171-C 0.199996 μM) was 1.086 and 0.9378 and 0.7276 and the “Normalised V0” value (BRCC36–Abraxas 2 complex; FX-171-C 0.499975 μM) was 1.276 and 0.8855 and 0.9134. For the same compound, the “Normalised V0” value (BRCC36–Abraxas 2 complex; FX-171-C 0.799936 μM) was 1.016 and 0.9326 and 0.9281, the “Normalised V0” value (BRCC36–Abraxas 2 complex; FX-171-C 1.25984 μM) was 1.192 and 1.006 and 0.8037 and the “Normalised V0” value (BRCC36–Abraxas 2 complex; FX-171-C 1.9996 μM) was 1.057 and 0.8883 and 0.8901. For the same compound, the “Normalised V0” value (BRCC36–Abraxas 2 complex; FX-171-C 3.159 μM) was 1.054 and 1.032 and 0.8522, the “Normalised V0” value (BRCC36–Abraxas 2 complex; FX-171-C 5.19739 μM) was 1.053 and 0.9454 and 1.03 and the “Normalised V0” value (BRCC36–Abraxas 2 complex; FX-171-C 7.99364 μM) was 1.141 and 1 and 1.012. For the same compound, the “Normalised V0” value (BRCC36–Abraxas 2 complex; FX-171-C 12.7839 μM) was 1.078 and 0.9313 and 0.7823, the “Normalised V0” value (BRCC36–Abraxas 2 complex; FX-171-C 19.96 μM) was 1.034 and 1.063 and 0.8934 and the “Normalised V0” value (BRCC36–Abraxas 2 complex; FX-171-C 31.4999 μM) was 1.1494 and 0.9768 and 0.8462. The “Normalised V0” value (BRCC36–Abraxas 2 complex; FX-171-C 50.147 μM) was 1.218 and 1.114 and 0.9054, the “Normalised V0” value (BRCC36–Abraxas 2 complex; FX-171-C 79.7601 μM) was 1.112 and 1.275 and 1.169 and the “Normalised V0” value (BRCC36–Abraxas 2 complex; FX-171-C 125.99 μM) was 1.275 and 1.029 and 0.9009. The “Normalised V0” value (BRCC36–Abraxas 2 complex; FX-171-C 199.922 μM) was 1.127 and 0.8107 and 0.6392 and the “inhibition of BRCC36–Abraxas 2 complex” value (BRCC36–Abraxas 2 complex; minimally active complex) was “did not inhibit”.
